{"source": "ChEMBL document CHEMBL5038665", "about": "“Identification of the Benzoimidazole Compound as a Selective FLT3 Inhibitor by Cell-Based High-Throughput Screening of a Diversity Library” (J Med Chem, 2022)", "key": {"[1]": {"assay": "Induction of apoptosis in mouse BaF3 cells assessed as survival population at 1 uM measured after 48 hrs by Annexin V-FITC/propidium iodide staining based flow cytometry(reference value: 96.35 %)", "type": "toxicity, cell-based", "details": "read-out: Activity"}, "[2]": {"assay": "Induction of apoptosis in mouse BaF3 cells assessed as survival population at 0.1 uM measured after 48 hrs by Annexin V-FITC/propidium iodide staining based flow cytometry(reference value: 96.35 %)", "type": "toxicity, cell-based", "details": "read-out: Activity"}, "[3]": {"assay": "Oral bioavailability in 12 hrs fasted Sprague-Dawley rat at 15 mg/kg by LC-MS analysis", "type": "ADME, organism-based", "details": "in vivo"}, "[4]": {"assay": "Clearance in 12 hrs fasted Sprague-Dawley rat at 2 mg/kg, iv measured upto 24 hrs by LC-MS analysis", "type": "ADME, organism-based", "details": "in vivo"}, "[5]": {"assay": "AUC (0-t) in 12 hrs fasted Sprague-Dawley rat at 2 mg/kg, iv measured upto 24 hrs by LC-MS analysis", "type": "ADME, organism-based", "parameters": "route intravenous, dose 2 mg/kg, time <=24", "details": "in vivo"}, "[6]": {"assay": "AUC (0-t) in 12 hrs fasted Sprague-Dawley rat at 15 mg/kg, po measured upto 24 hrs by LC-MS analysis", "type": "ADME, organism-based", "parameters": "route oral, dose 15 mg/kg, time <=24", "details": "in vivo"}, "[7]": {"assay": "Clearance in 12 hrs fasted Sprague-Dawley rat at 15 mg/kg, po measured upto 24 hrs by LC-MS analysis", "type": "ADME, organism-based", "details": "in vivo"}, "[8]": {"assay": "Half life in 12 hrs fasted Sprague-Dawley rat at 2 mg/kg, iv measured upto 24 hrs by LC-MS analysis", "type": "ADME, organism-based", "details": "in vivo"}, "[9]": {"assay": "Cmax in 12 hrs fasted Sprague-Dawley rat at 15 mg/kg, po measured upto 24 hrs by LC-MS analysis", "type": "ADME, organism-based", "parameters": "route oral, dose 15 mg/kg, time <=24", "details": "in vivo"}, "[10]": {"assay": "Antiproliferative activity against human ML-1 cells expressing wild type FLT3 assessed as reduction in cell viability measured after 72 hrs by MTS assay", "type": "functional, cell-based", "details": "ML1, 72 h"}, "[11]": {"assay": "Antiproliferative activity against mouse BaF3 cells expressing wild type FLT3 assessed as reduction in cell viability measured after 72 hrs by MTS assay", "type": "toxicity, cell-based"}, "[12]": {"assay": "Antiproliferative activity against mouse Ba/F3 FLT3-ITD cells assessed as reduction in cell viability measured after 72 hrs by MTS assay", "type": "functional, cell-based"}, "[13]": {"molecular_target": "Serine/threonine-protein kinase B-raf (Homo sapiens, UniProt P15056)", "sequence (P15056 whole entry)": "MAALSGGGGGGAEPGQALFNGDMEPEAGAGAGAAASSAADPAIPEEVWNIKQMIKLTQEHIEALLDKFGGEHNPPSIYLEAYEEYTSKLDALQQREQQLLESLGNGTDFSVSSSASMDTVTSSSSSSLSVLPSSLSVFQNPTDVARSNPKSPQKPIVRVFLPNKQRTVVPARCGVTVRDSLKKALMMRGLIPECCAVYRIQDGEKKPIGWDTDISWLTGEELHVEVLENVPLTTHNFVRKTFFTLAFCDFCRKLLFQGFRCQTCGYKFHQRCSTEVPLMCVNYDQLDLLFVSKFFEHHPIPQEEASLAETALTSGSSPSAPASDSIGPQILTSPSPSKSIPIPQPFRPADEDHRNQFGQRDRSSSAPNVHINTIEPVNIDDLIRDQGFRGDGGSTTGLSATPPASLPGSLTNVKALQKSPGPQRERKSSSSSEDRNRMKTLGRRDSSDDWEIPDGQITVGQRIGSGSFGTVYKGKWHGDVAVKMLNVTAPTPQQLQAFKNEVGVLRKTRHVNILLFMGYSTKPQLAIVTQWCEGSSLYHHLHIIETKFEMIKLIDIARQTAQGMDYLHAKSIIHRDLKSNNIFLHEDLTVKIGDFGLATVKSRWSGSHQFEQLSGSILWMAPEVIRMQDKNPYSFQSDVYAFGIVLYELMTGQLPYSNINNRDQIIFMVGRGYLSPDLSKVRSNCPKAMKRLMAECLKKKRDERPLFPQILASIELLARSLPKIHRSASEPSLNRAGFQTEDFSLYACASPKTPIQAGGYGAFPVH", "assay": "Inhibition of BRAF (unknown origin)"}, "[14]": {"molecular_target": "Fibroblast growth factor receptor 1 (Homo sapiens, UniProt P11362)", "sequence (P11362 whole entry)": "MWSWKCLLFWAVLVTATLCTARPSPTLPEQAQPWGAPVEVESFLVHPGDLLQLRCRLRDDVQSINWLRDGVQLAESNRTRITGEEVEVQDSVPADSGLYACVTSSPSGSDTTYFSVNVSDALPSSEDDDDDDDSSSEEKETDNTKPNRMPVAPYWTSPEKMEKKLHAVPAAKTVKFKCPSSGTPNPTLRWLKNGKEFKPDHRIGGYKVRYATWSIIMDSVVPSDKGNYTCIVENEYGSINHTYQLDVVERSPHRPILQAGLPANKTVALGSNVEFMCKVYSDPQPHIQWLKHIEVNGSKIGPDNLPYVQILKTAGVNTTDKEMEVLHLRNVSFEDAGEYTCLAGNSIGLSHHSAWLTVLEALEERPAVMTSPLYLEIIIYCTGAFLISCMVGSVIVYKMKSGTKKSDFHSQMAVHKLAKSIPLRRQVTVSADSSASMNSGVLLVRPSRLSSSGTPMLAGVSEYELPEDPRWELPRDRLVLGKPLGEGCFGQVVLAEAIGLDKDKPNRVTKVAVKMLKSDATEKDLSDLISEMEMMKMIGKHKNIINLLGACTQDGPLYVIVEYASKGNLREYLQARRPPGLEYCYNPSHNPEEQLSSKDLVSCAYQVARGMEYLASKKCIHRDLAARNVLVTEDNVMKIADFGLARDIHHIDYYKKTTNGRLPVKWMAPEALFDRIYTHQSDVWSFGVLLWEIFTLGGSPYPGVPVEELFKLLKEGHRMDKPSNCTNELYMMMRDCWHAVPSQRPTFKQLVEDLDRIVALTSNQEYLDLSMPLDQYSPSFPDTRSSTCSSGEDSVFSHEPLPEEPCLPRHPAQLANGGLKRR", "assay": "Inhibition of FGFR1 (unknown origin)"}, "[15]": {"molecular_target": "T1, Receptor-type tyrosine-protein kinase FLT3 (Homo sapiens, UniProt P36888)", "T1 sequence (P36888 whole entry)": "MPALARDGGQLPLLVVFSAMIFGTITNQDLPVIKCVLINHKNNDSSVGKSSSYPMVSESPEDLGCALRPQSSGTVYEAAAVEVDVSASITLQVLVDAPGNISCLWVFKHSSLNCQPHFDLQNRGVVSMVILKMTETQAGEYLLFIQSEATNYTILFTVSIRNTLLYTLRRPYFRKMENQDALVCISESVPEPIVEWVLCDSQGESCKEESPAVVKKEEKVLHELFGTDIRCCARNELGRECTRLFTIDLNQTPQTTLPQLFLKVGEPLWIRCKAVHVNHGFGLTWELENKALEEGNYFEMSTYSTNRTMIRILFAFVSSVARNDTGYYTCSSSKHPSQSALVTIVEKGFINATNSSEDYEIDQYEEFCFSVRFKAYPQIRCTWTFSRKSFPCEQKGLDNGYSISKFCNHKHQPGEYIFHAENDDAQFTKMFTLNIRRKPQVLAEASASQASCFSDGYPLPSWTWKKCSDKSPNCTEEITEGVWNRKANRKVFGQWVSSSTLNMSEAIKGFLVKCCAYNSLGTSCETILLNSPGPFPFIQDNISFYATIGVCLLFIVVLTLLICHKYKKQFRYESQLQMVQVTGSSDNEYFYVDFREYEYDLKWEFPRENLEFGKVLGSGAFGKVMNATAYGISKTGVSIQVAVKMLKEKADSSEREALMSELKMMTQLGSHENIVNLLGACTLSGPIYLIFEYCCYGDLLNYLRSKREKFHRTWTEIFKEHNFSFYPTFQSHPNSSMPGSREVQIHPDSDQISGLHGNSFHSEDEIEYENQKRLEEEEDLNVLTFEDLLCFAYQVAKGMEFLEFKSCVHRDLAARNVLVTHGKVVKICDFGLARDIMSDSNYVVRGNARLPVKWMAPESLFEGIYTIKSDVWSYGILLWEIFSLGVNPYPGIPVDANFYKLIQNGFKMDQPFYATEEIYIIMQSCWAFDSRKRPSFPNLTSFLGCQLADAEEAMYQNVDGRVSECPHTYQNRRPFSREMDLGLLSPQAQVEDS", "assay": "Inhibition of FLT3 (unknown origin)"}, "[16]": {"molecular_target": "Receptor-type tyrosine-protein kinase FLT3 (Homo sapiens, UniProt P36888, ITD)", "assay": "Inhibition of FLT3-ITD mutant (unknown origin)"}, "[17]": {"assay": "Induction of apoptosis in mouse Ba/F3 FLT3-ITD cells assessed as survival population at 0.5 uM measured after 48 hrs by Annexin V-FITC/propidium iodide staining based flow cytometry(reference value: 93.99 %)", "type": "functional"}, "MOLM-13": {"system": "MOLM-13", "assay": "Induction of apoptosis in human MOLM-13 cells assessed as survival population at 0.1 uM measured after 48 hrs by Annexin V-FITC/propidium iodide staining based flow cytometry(reference value: 97.35 %)", "type": "functional"}, "MV4-11 [18]": {"system": "MV4-11", "assay": "Induction of apoptosis in human MV4-11 cells assessed as survival population at 0.5 uM measured after 48 hrs by Annexin V-FITC/propidium iodide staining based flow cytometry(reference value: 98.01 %)", "type": "functional"}, "MV4-11 [19]": {"system": "MV4-11", "assay": "Induction of apoptosis in human MV4-11 cells assessed as survival population at 1 uM measured after 48 hrs by Annexin V-FITC/propidium iodide staining based flow cytometry(reference value: 98.01 %)", "type": "functional"}, "[20]": {"molecular_target": "Receptor-type tyrosine-protein kinase FLT3 (Homo sapiens) (UniProt P36888)", "assay": "Inhibition of FLT3 phosphorylation in human MV4-11 cells assessed as reduction in phosphorylated FLT3 level measured after 12 hrs by western blot analysis", "type": "cell-based"}, "[21]": {"assay": "Toxicity in Balb/c mouse implanted with mouse Ba/F3 FLT3-ITD cells assessed as inflammatory cell infiltration in spleen at 30 to 100 mg/kg, po administered for 14 days", "type": "organism-based, BaF3", "details": "in vivo, 336 h, time 14 day"}, "[22]": {"molecular_target": "Receptor-type tyrosine-protein kinase FLT3 (Homo sapiens) (UniProt P36888)", "assay": "Inhibition of FLT3-mediated signalling pathway in human MV4-11 cells assessed as inhibition of STAT5 phosphorylation at 50 nM by western blot analysis", "type": "cell-based"}, "MV4-11 [23]": {"system": "MV4-11", "assay": "Antitumor activity against human MV4-11 cells xenografted in Balb/c mouse assessed as reduction in tumor weight at 100 mg/kg, po administered for 28 days", "type": "functional, organism-based", "details": "time 28.0 day"}, "[24]": {"assay": "Antitumor activity against mouse Ba/F3 FLT3-ITD cells implanted in Balb/c mouse assessed as increase in survival time at 30 mg/kg, po administered every 24 hrs (Rvb=14 days)", "type": "functional"}, "[25]": {"assay": "Antitumor activity against mouse Ba/F3 FLT3-ITD cells implanted in Balb/c mouse assessed as increase in survival time at 60 mg/kg, po administered every 24 hrs (Rvb=14 days)", "type": "functional"}, "[26]": {"assay": "Antitumor activity against mouse Ba/F3 FLT3-ITD cells implanted in Balb/c mouse assessed as increase in survival time at 120 mg/kg, po administered every 24 hrs (Rvb=14 days)", "type": "functional"}}, "note": "Activity calls are given as the source filed them. The calls are words filed in the database; no cut-off is given here.", "data": [{"smiles": "COc1cc(CNc2ccc3c(c2)ncn3-c2ccccc2)ccc1OCCO", "values": [{"measurement": "viability at 48 h, 1 µM", "setting": "[1]", "result": 97.7, "unit": "%"}, {"measurement": "viability at 48 h, 0.1 µM", "setting": "[2]", "result": 98.3, "unit": "%"}, {"measurement": "bioavailability", "setting": "[3]", "result": 48.2, "unit": "%"}, {"measurement": "clearance", "setting": "[4]", "result": 43.2, "unit": "mL/min/kg"}, {"measurement": "AUC(0-t) at 24 h", "setting": "[5]", "result": 800, "unit": "ng·h/mL"}, {"measurement": "AUC(0-t) at 24 h", "setting": "[6]", "result": 2890, "unit": "ng·h/mL"}, {"measurement": "CL/F", "setting": "[7]", "result": 84.7, "unit": "mL/min/kg"}, {"measurement": "half-life", "setting": "[8]", "result": 18.6, "unit": "min"}, {"measurement": "Cmax", "setting": "[9]", "result": 440, "unit": "ng/mL"}, {"measurement": "IC50", "setting": "[10]", "result": "> 50000", "unit": "nM"}, {"measurement": "IC50 at 72 h", "setting": "[11]", "result": "> 400", "unit": "nM"}, {"measurement": "IC50", "setting": "[12]", "result": 75.4, "unit": "nM"}, {"measurement": "IC50", "setting": "[13]", "result": "> 1000", "unit": "nM"}, {"measurement": "IC50", "setting": "[14]", "result": "> 1000", "unit": "nM"}, {"measurement": "IC50", "setting": "[15]", "result": 85, "unit": "nM"}, {"measurement": "IC50", "setting": "[16]", "result": 70, "unit": "nM"}, {"measurement": "Activity", "setting": "[17]", "result": 47.99, "unit": "%"}, {"measurement": "Activity", "setting": "MOLM-13", "result": 83.61, "unit": "%"}, {"measurement": "Activity", "setting": "MV4-11 [18]", "result": 78.6, "unit": "%"}, {"measurement": "Activity", "setting": "MV4-11 [19]", "result": 68.54, "unit": "%"}, {"measurement": "inhibition", "setting": "[20]", "result": "Active"}, {"measurement": "Activity", "setting": "[21]", "result": "Non-Toxic"}, {"measurement": "inhibition", "setting": "[22]", "result": "Active"}, {"measurement": "Activity", "setting": "MV4-11 [23]", "result": "Active"}, {"measurement": "Time", "setting": "[24]", "result": 18, "unit": "days"}, {"measurement": "Time", "setting": "[25]", "result": 22, "unit": "days"}, {"measurement": "Time", "setting": "[26]", "result": 25, "unit": "days"}]}]}
